Measurements: patent US20250361230A1, “LATS Inhibitors and Uses Thereof” (The USA, as Represented by the Secretary, Dept. of Heath …, priority 2022, published 2025)

Columns and labels:
[1] = target: T1, LATS2 (Homo sapiens, UniProt Q9NRM7); experiment: RBC HotSpot kinase assay (33P-ATP, P81 filter-binding), LATS2; assay type: biochemical; details: Table 28, biochemical kinase assay; read-out: LATS2 IC50
T1 sequence (Q9NRM7 1-1088): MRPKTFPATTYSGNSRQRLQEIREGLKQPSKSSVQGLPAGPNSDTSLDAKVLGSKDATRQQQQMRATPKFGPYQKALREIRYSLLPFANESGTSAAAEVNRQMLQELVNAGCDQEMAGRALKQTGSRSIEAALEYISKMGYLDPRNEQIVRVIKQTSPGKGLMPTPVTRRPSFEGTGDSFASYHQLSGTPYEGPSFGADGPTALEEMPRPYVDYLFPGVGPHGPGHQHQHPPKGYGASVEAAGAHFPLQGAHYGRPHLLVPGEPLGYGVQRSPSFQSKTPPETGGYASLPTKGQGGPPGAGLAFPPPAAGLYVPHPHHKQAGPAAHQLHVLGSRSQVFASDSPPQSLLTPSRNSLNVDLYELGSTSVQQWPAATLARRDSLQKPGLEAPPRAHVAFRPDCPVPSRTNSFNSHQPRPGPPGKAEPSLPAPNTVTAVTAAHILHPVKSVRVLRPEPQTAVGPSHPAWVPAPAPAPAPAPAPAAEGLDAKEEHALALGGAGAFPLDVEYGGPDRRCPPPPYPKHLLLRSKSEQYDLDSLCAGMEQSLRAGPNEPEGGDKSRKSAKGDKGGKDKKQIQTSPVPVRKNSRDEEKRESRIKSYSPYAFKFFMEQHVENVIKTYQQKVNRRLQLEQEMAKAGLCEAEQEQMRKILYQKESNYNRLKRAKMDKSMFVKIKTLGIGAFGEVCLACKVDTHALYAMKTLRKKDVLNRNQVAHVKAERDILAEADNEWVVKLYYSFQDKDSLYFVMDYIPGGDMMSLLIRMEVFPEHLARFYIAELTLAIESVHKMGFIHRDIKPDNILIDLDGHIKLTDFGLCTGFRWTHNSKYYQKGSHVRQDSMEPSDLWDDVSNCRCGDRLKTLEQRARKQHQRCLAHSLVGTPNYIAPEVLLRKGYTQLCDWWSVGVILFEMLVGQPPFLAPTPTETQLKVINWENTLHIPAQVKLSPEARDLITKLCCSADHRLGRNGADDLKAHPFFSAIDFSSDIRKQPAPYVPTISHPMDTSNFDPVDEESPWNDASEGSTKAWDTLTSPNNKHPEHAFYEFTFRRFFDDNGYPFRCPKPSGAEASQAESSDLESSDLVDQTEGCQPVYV
Summary of the method: (§1)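 Kinase in Hepes pH 7.5 buffer with Mg2+, EGTA, Brij35, BSA, vanadate, DTT and 1% DMSO, plus required cofactors and substrate, was preincubated 20 min at room temperature with compound. Reaction was started with 33P-ATP and run 2 h, then detected by P81 filter binding. IC50 (nM) came from 10-point singlet curves.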

[2] = target: AKT (Homo sapiens, UniProt P31749); experiment: RBC HotSpot kinase assay (33P-ATP, P81 filter-binding), AKT; assay type: biochemical; details: Table 28, biochemical kinase assay; read-out: AKT IC50
Summary of the method: as §1

AKT, sequence (P31749 whole entry): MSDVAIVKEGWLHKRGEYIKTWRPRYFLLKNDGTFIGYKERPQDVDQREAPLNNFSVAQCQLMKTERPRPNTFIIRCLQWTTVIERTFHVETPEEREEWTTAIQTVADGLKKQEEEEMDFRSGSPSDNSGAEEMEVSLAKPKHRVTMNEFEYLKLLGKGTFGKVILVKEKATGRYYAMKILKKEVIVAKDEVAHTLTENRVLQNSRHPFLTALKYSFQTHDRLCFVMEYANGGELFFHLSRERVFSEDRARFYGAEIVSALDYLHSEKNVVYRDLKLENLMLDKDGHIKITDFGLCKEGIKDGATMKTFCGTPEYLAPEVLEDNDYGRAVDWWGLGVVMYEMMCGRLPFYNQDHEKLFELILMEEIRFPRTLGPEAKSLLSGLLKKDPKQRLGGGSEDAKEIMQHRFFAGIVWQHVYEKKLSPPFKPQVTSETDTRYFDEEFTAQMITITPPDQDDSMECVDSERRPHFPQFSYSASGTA

Row | SMILES | IC50 [1] | IC50 [2]
1 | C[C@@H]1CNC[C@H](C)[C@@]1(O)c1ccc(-c2ccnc3[nH]cc(F)c23)cc1Cl [Compound 1, (3S,4S,5R)-4-(2-chloro-4-(3-fluoro-1H-pyrrolo[2,3-b]pyridin-4-yl)phenyl)-3,5-dimethylpiperidin-4-ol] | 14.6 nM | 15.4 nM
2 | C[C@@H]1CNC[C@H](C)[C@@]1(O)c1ccc(-c2ccnc3[nH]cc(F)c23)cc1 [Compound 2, (3R,4s,5S)-4-(4-(3-fluoro-1H-pyrrolo[2,3-b]pyridin-4-yl)phenyl)-3,5-dimethylpiperidin-4-ol] | 12.5 nM | 147 nM
3 | C[C@@H]1CNC[C@H](C)[C@@]1(O)c1ccc(-c2ccnc3[nH]cc(F)c23)cc1F [Compound 7, (3S,4s,5R)-4-(2-fluoro-4-(3-fluoro-1H-pyrrolo[2,3-b]pyridin-4-yl)phenyl)-3,5-dimethyl piperidin-4-ol] | 6.3 nM | 192 nM
4 | C[C@@H]1CNC[C@H](C)[C@@]1(O)c1ccc(-c2ccnc3[nH]cc(F)c23)nc1 [Compound 8, (3S,4s,5R)-4-(6-(3-fluoro-1H-pyrrolo[2,3-b]pyridin-4-yl)pyridin-3-yl)-3,5-dimethylpiperidin-4-ol] | 203 nM | 3330 nM
5 | Cc1cc(-c2ccnc3[nH]cc(F)c23)ccc1[C@@]1(O)[C@H](C)CNC[C@@H]1C [Compound 9, (3S,4s,5R)-4-(4-(3-fluoro-1H-pyrrolo[2,3-b]pyridin-4-yl)-2-methylphenyl)-3,5-dimethylpiperidin-4-ol] | 6.6 nM | 89.2 nM
6 | C[C@@H]1CNC[C@H](C)[C@@]1(O)c1c(F)cc(-c2ccnc3[nH]cc(F)c23)cc1F [Compound 13] | 7.2 nM | 362 nM
7 | C[C@@H]1CNC[C@H](C)[C@@]1(O)c1ccc(-c2ccnc3[nH]cc(F)c23)cc1OC(F)(F)F [Compound 14, (3S,4s,5R)-4-(4-(3-fluoro-1H-pyrrolo[2,3-b]pyridin-4-yl)-2-(trifluoromethoxy)phenyl)-3,5-dimethylpiperidin-4-ol] | 5.5 nM | 112 nM
8 | C[C@@H]1CN(Cc2ccccn2)C[C@H](C)[C@@]1(O)c1c(F)cc(-c2ccnc3[nH]cc(F)c23)cc1F [Compound 17, (3S,4s,5R)-4-(2,6-difluoro-4-(3-fluoro-1H-pyrrolo[2,3-b]pyridin-4-yl)phenyl)-3,5-dimethyl-1-(pyridin-2-ylmethyl)piperidin-4-ol] | 11.9 nM | 1070 nM
9 | C[C@@H]1CN(C)C[C@H](C)[C@@]1(O)c1cnc(-c2ccnc3[nH]cc(F)c23)cc1Cl [Compound 22, (3S,4s,5R)-4-(4-chloro-6-(3-fluoro-1H-pyrrolo[2,3-b]pyridin-4-yl)pyridin-3-yl)-1,3,5-trimethylpiperidin-4-ol] | 4.1 nM | 505 nM
10 | C[C@@H]1CN(C)C[C@H](C)[C@@]1(O)c1ccc(-c2ccnc3[nH]cc(F)c23)cc1 [Compound 39, (3R,4s,5S)-4-(4-(3-fluoro-1H-pyrrolo[2,3-b]pyridin-4-yl)phenyl)-1,3,5-trimethylpiperidin-4-ol] | 24.7 nM | 213 nM
11 | C[C@@H]1CN(C)C[C@H](C)[C@@]1(O)c1ccc(-c2ccnc3[nH]cc(F)c23)nc1 [Compound 41, (3R,4s,5S)-4-(6-(3-fluoro-1H-pyrrolo[2,3-b]pyridin-4-yl)pyridin-3-yl)-1,3,5-trimethylpiperidin-4-ol] | 268 nM | 4140 nM
12 | C[C@@H]1CN(C2COC2)C[C@H](C)[C@@]1(O)c1c(F)cc(-c2ccnc3[nH]cc(F)c23)cc1F [Compound 45, (3S,4s,5R)-4-(2,6-difluoro-4-(3-fluoro-1H-pyrrolo[2,3-b]pyridin-4-yl)phenyl)-3, S-dimethyl-1-(oxetan-3-yl)piperidin-4-ol] | 9.8 nM | 1170 nM
13 | Cc1cc(-c2ccnc3[nH]cc(F)c23)cc(F)c1[C@@]1(O)[C@H](C)CN(C2CCS(=O)(=O)CC2)C[C@@H]1C [Compound 57, 4-((3R,4s,5S)-4-(2-fluoro-4-(3-fluoro-1H-pyrrolo[2,3-b]pyridin-4-yl)-6-methylphenyl)-4-hydroxy-3,5-dimethylpiperidin-1-yl)tetrahydro-2H-thiopyran 1,1-dioxide] | 5.3 nM | 374 nM
14 | C[C@@H]1CN(C(=O)CN)C[C@H](C)[C@@]1(O)c1c(F)cc(-c2ccnc3[nH]cc(F)c23)cc1F [Compound 58] | 11.1 nM | 621 nM

Further lines, results first:

Row | IC50 [1] | IC50 [2] | SMILES
15 | 5.7 nM | 374 nM | Cc1cc(-c2ccnc3[nH]cc(F)c23)ccc1[C@@]1(O)[C@H](C)CN(C2COC2)C[C@@H]1C [Compound 24, (3S,4s,5R)-4-(4-(3-fluoro-1H-pyrrolo[2,3-b]pyridin-4-yl)-2-methylphenyl)-3,5-dimethyl-1-(oxetan-3-yl)piperidin-4-ol]
16 | 2.2 nM | 43.5 nM | Cc1cc(-c2ccnc3[nH]cc(F)c23)ccc1[C@@]1(O)[C@H](C)CN(C(C)C)C[C@@H]1C [Compound 29, (3S,4s, 5R)-4-(4-(3-fluoro-1H-pyrrolo[2,3-b]pyridin-4-yl)-2-methylphenyl)-1-isopropyl-3,5-dimethylpiperidin-4-ol]
17 | 9 nM | 698 nM | Cc1cc(-c2ccnc3[nH]cc(F)c23)cc(F)c1C1(O)[C@H](C)CN(C2COC2)C[C@@H]1C (stereo partly drawn) [Compound 30, (3S,5R)-4-(2-fluoro-4-(3-fluoro-1H-pyrrolo[2,3-b]pyridin-4-yl)-6-methylphenyl)-3,5-dimethyl-1-(oxetan-3-yl)piperidin-4-ol]
18 | 6.3 nM | 129 nM | C[C@@H]1CN(C2CCS(=O)(=O)CC2)C[C@H](C)C1(O)c1c(F)cc(-c2ccnc3[nH]cc(F)c23)cc1F (stereo partly drawn) [Compound 31, 4-((3S,5R)-4-(2,6-difluoro-4-(3-fluoro-1H-pyrrolo[2,3-b]pyridin-4-yl)phenyl)-4-hydroxy-3,5-dimethylpiperidin-1-yl)tetrahydro-2H-thiopyran 1,1-dioxide]
19 | 4 nM | 358 nM | C[C@@H]1CN(C2CCC2)C[C@H](C)[C@@]1(O)c1c(F)cc(-c2ccnc3[nH]cc(F)c23)cc1F [Compound 46, (3R,4s,5S)-1-cyclobutyl-4-(2,6-difluoro-4-(3-fluoro-1H-pyrrolo[2,3-b]pyridin-4-yl)phenyl)-3,5-dimethylpiperidin-4-ol]
20 | 16.1 nM | 6110 nM | Cc1cc(-c2ccnc3[nH]cc(F)c23)ncc1[C@@]1(O)[C@H](C)CN(C2CCC2)C[C@@H]1C [Compound 48, (3R,4s,5S)-1-cyclobutyl-4-(6-(3-fluoro-1H-pyrrolo[2,3-b]pyridin-4-yl)-4-methylpyridin-3-yl)-3,5-dimethylpiperidin-4-ol]
21 | 4250 nM | > 10000 nM | Cc1cc(-c2ccnc3[nH]cc(F)c23)ncc1[C@@]1(O)[C@H](C)CN(C2CCS(=O)(=O)CC2)C[C@@H]1C [Compound 51, 4-((3R,4s,5S)-4-(6-(3-fluoro-1H-pyrrolo[2,3-b]pyridin-4-yl)-4-methylpyridin-3-yl)-4-hydroxy-3,5-dimethylpiperidin-1-yl)tetrahydro-2H-thiopyran 1,1-dioxide]
22 | 2.3 nM | 51 nM | Cc1cc(-c2ccnc3[nH]cc(F)c23)ccc1[C@@]1(O)[C@H](C)CN(C2CCC2)C[C@@H]1C [Compound 54, (3R,4s,5S)-1-cyclobutyl-4-(4-(3-fluoro-1H-pyrrolo[2,3-b]pyridin-4-yl)-2-methylphenyl)-3,5-dimethylpiperidin-4-ol]
23 | 12.1 nM | 62.8 nM | Cc1cc(-c2ccnc3[nH]cc(F)c23)ccc1[C@@]1(O)[C@H](C)CN(C2CCS(=O)(=O)CC2)C[C@@H]1C [Compound 55, 4-((3R,4s, 5S)-4-(4-(3-fluoro-1H-pyrrolo[2,3-b]pyridin-4-yl)-2-methylphenyl)-4-hydroxy-3,5S-dimethylpiperidin-1-yl)tetrahydro-2H-thiopyran 1,1-dioxide]
24 | 6.7 nM | 49.2 nM | Cc1cc(-c2ccnc3[nH]cc(F)c23)ccc1[C@@]1(O)[C@H](C)CN(C(=O)CN)C[C@@H]1C [Compound 60, 2-amino-1-((3R,4s,5S)-4-(4-(3-fluoro-1H-pyrrolo[2,3-b]pyridin-4-yl)-2-methylphenyl)-4-hydroxy-3,5-dimethylpiperidin-1-yl)ethan-1-one]
